From US9649305B2, “PFKFB3 inhibitor and methods of use as an anti-cancer therapeutic” (ADVANCED CANCER THERAPEUTICS, LLC, priority 2012, dated 2017)
Where two headings read alike, the source gives them in different places.

Assays:
Jurkat cells = assay: Inhibition of 14C-2-deoxyglucose uptake; format: cell-based; conditions: Homo sapiens, read-out: IC50, Inhibition of 2 deoxyglucose uptake
Procedure: Inhibition of PFKFB3 results in inhibiting glycolysis. Several feedback or feedforward activation and inhibition mechanisms exist so that, by a feedback mechanism, inhibiting the activity of PFKFB3 might inhibit glucose uptake by cells. An assay was developed to determine if there was inhibition of glucose uptake following exposure PFK-158. Briefly, Jurkat cells were plated at 10^5 cells/mL in RPMI 1640 supplemented with 10% fetal bovine serum and 50 μg/mL gentamicin sulfate. Cells were immediately treated with vehicle or 0.5 μmol/L of PFK-158 for 3 hours and subsequently placed in glucose-free RPMI 1640 for 30 min. ^14C-2-deoxyglucose (0.25 μCi/mL; Perkin Elmer) was added for an additional 60 min and cells were then washed three times with ice-cold RPMI 1640 containing no glucose. Cell lysates were collected in 500 μL of 0.1% SDS and scintillation counts (counts/min) were measured on 400 μL of lysate. Counts were normalized to protein concentration.

[1] = system: Jurkat cell line (leukemia cell line); assay: Toxicity / cell growth of Jurkat cell line; format: cell-based; conditions: Homo sapiens, Jurkat, read-out: IC50, toxicity of Jurkat cell line (leukemia cell line)
Procedure: The ability of PFK-158 to kill or inhibit the proliferation of cancer cells was measured using either the MTT assay, the alamarBlue® assay (Invitrogen, Grand Island, N.Y.), or the CellTiter Glo™ assay (Promega, Madison, Wis.) using 48 or 72 hours exposure.
Cells of the desired tumor cell line were plated at 2×10^5 cells/ml in 96 well plates. Twice the indicated concentrations of the compounds of the invention were added to cells the following day in an equal volume of media. 72 hours later, cells were lysed and subjected to ATP determination using the CellTiter-Glo™ Luminescent Cell Viability Assay kit. Experiments were performed in triplicate. When using the MTT assay or the alamarBlue® assay, the experimental conditions are essentially similar; at the end of the incubation period, 20 microliters of the MTT solution is added per well and the samples are incubated for an additional four hours, rinsed, and absorbance at 570 nm was measured. Results for the inhibition of cell proliferation are reported as the IC50 (the concentration resulting in 50% inhibition of proliferation of the cell population) and are listed in Table 5 below. Cell lines include lung, colon, prostate, breast, ovarian, and pancreatic cancer lines.

PFKFB3 [2] = molecular target: T1, PFKFB3 (Homo sapiens, UniProt Q16875); assay: Enzymatic activity of PFKFB3 in cells (F2,6BP levels, Van Schaftingen method); format: cell-based; parameters: endogenous in cells; host or cells: Jurkat cells; conditions: read-out: IC50, Enzymatic activity of PFKFB3 in cells
Procedure: Inhibition of PFKFB3 can also be measured in cells by measuring fructose-2,6-biphosphate levels according to the Van Schaftingen method (Eur. J. of Biochem, 129: 191 (1982)). This method enables measurement of the inhibition in a cellular environment, a model more relevant than the pure recombinant protein. Briefly, Jurkat cells were plated at 1×10^5 cells/mL and incubated with different concentrations of PFK-158 for 3 hours. Samples were collected and cells were lysed. Extracts were characterized as described in previous reports and normalized to protein concentration.

[3] = IV pharmacokinetics in mice; format: in vivo, Balbc mice; conditions: mouse, plasma, 5 mg/kg, IV dosing; for AUC(0-inf): read-out: AUC0-inf; for Cmax: read-out: Cmax
Procedure: The pharmacokinetic (PK) parameters for PFK-158 were determined in mice following IV (intravenous) administration in mice and rats. A typical study design includes six animals (male or female) 7 to 8 weeks old.
Mouse pharmacokinetic properties using a dose of 5 mg/kg were determined after IV administration using a 10% DMSO, 10% PEG-200, 10% Solutol:ethanol (1:1) and 70% D5W solution or any other pharmaceutically acceptable parenteral formulation. Blood samples were collected at different intervals. Plasma samples were extracted and analyzed using an LC-MS/MS method. Similar protocols were used for the rat PK study (Sprague Dawley rats; 30 mg/kg), although the formulation for rat PK studies differed (30% Captisol, pH 3.0 solution). Time vs. plasma concentration plots were prepared as shown in FIGS. 4 (BalbC mice) and 5 (SD rats), respectively. Pharmacokinetic parameters were calculated and are provided below in Table 7.

PFKFB3 [4] = molecular target: T1, PFKFB3; assay: Enzymatic activity of recombinant PFKFB3, ADP-Glo assay; format: biochemical
Procedure: The inducible bifunctional 6-Phosphofructo-2-kinase/fructose2,6-biphosphatase enzyme (PFKFB3) was expressed and purified in order to determine if PFK-158 inhibits enzymatic activity. PFKFB3 was prepared by expression in E. coli and purified by GST column and column chromatography. […] The recombinant protein was pure and active as determined by the results of a commercially available kinase activity assay (ADP-Glo™, Promega, Madison, Wis.).

[5] = In vitro stability in human liver microsomes; format: in vitro ADME
[6] = Maximum tolerated dose study; format: in vivo; conditions: C57/B16, mouse, in vivo; 3 days on/3 days off schedule; read-out: MTD
Procedure: Several maximum tolerated dose studies and toxicology studies were performed and the results indicated PFK-158 is safer than PFK-015. Studies were performed in C57/B16 mice and SD rats.

[7] = Repeat-dose toxicology study in SD rats; format: in vivo
Procedure: Toxicology studies were performed in SD rats comparing PFK-158 and PFK-015 using a repeat dosing schedule. The studies were performed at dose levels ranging from 5 to 30 mg/kg and animals were monitored for weight loss, behavior, clinical signs, and clinical chemistries. At the end of the study, gross pathology and histopathology were performed.

[8] = system: lung cancer model, pancreatic cancer model, colon cancer model; assay: Tumor growth inhibition in mouse cancer models; conditions: mouse cancer models, during treatment
Procedure: Studies determining efficacy of PFK-158 at inhibiting tumor growth in mouse cancer models were performed. These studies were carried out with PFK-158 alone and in combination with compounds currently used in the treatment of cancer patients. Studies were performed in a lung cancer model, a pancreatic cancer model, and in a colon cancer model.
Efficacy of PFK-158 was studied in vivo in tumor models. Several tumor models were used in these studies (the Lewis lung carcinoma, or LLC model, the CT-26 colon carcinoma tumor model, or the BXPC3 pancreatic cancer model). The experimental protocol for the LLC study is described below. Subsequent to subcutaneous inoculation of tumor cells, tumors started to develop and once tumors reached the desired volume of 100-125 mm^3 on average, treatment was initiated. Tumor volume was monitored in both groups and the average for both the control and treatment groups was measured three times a week, as well as body weights.
Briefly, normal female C57BL/6 mice at 7-8 weeks of age were used for the study. Mice were housed in microisolator housing, with food and water provided as libitum, and quarantined for 4 days prior to the initiation of the study. LLC cells were maintained in a monolayer culture in DMEM medium supplemented with 10% heat inactivated fetal calf serum, 100 U/ml penicillin and 100 μg/ml streptomycin, and L-glutamine (2 mM) at 37° C. in an atmosphere of 5% CO2 in air. The tumor cells were routinely sub-cultured twice a week. The cells growing in an exponential phase were harvested and counted for tumor inoculation. Each mouse was inoculated subcutaneously at the right flank with the LLC tumor cells (3×10^5) in 0.1 ml of PBS for tumor development. When athymic nude mice were used, as for the BxPC3 model, then the strain of mice is slightly different. Furthermore, the use of Matrigel supports tumor development, meaning that cells are suspended in 100 μl of a mixture of medium/Matrigel (1:1) and are then subcutaneously implanted in the right flank region. Animals were monitored for tumor growth daily after cell implantation. When tumor volumes reached approximately 100-125 mm^3, mice were randomized into groups of 8 mice each using only mice having tumor volumes closest to the mean value. Tumor volumes were measured using the formula V=L×W×H×π/6, where L and W represent the longer and shorter diameters of the tumor and H represents the height of the tumor. Treatment began following randomization. PFK-158 was administered IP at a dose of 60 mg/kg on days 1, 3, 5, 7, 9, 11, and 13.
Similar protocols were used for the other studies using different models; differences included the use of Balbc/nude mice; administering larger number of cancer cells; and use of Matrigel.

[9] = IV pharmacokinetics in dogs, 40 mg/kg; format: in vivo; conditions: IV 40 mg/kg
Procedure: (§1) In another embodiment, a cyclodextrin based solution was used to investigate the PK profile of PFK-158, 2HCl at a higher concentration in both rats and dogs.
(§2) The solution was prepared with 40% w/v Captisol® in water for injection, 5% Mannitol, and a pH 2.3 citrate buffer leading to a 8 mg/ml concentration of PFK-158, 2HCl. This solution was safely administered IV to rats and dogs at a dose of 40 mg/kg. Blood samples were taken over a 24 hour period and analyzed. […] Pharmacokinetic parameters were calculated in the same way in dogs: plasma AUC0→24 values of 16,100±700 and 15,900±2600 hr·ng/mL, and plasma C5 min values of 6960±1180 and 6900±900 ng/mL were obtained for male and female dogs, respectively.

[10] = IV pharmacokinetics in rats, 40 mg/kg; format: in vivo; conditions: IV 40 mg/kg; for Plasma AUC0→t: Captisol solution
Procedure: as §1, §2

[11] = Table 8, read-out: IC50, Enzymatic activity of PFKFB3, ADP-Glo Assay

T1 sequence (Q16875 whole entry): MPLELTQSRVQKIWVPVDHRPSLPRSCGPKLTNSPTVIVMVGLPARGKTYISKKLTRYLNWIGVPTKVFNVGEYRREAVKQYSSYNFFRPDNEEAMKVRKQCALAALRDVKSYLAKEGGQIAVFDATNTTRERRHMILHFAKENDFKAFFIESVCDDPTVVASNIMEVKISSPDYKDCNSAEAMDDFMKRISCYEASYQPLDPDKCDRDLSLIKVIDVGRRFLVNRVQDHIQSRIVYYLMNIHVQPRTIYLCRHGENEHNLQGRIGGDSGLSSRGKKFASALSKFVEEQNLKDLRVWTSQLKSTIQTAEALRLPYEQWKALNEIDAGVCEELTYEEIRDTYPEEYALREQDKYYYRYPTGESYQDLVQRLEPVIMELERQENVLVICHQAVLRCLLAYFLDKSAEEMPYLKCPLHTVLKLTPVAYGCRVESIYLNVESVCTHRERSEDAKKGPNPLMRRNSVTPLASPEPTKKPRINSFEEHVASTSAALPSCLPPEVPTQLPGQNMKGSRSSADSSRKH

Row | IC50 (Jurkat cells; Jurkat, Table 8) [µM] | IC50 (PFKFB3 [2]; Table 8) [µM] | clearance ([3]; Table 9, BalbC mice) [mL/min/kg] | half-life ([3]; Table 9, BalbC mice) [h] | AUC(0-inf) ([3]; Table 9, BalbC mice) [ng·h/mL] | Cmax ([3]; Table 9, BalbC mice) [ng/mL] | IC50 (PFKFB3 [4]; [11]) [µM] | Structure (SMILES) | IC50 ([1]; Table 8) [µM] | further results
1 | 3.1 ± 0.5 | 10.7 ± 0.3 | 120 | 2.8 | 696 | 1500 | 0.654 ± 0.094 | COc1ccc2nc(/C=C/C(=O)c3ccnc(OC)c3)ccc2c1 [PFK-144, 1-(2-methoxy-pyridin-4-yl)-3-(6-methoxy-quinolin-2-yl)-propenone] | 1.7 ± 0.3 | 
2 | 2.2 ± 0.3 | 7.4 ± 1.8 | 154 | 0.7 | 541 | 991 | 0.431 ± 0.034 | COc1ccc2nc(/C=C/C(=O)c3ccncc3)ccc2c1 [PFK-138, 3-(6-methoxy-quinolin-2-yl)-1-pyridin-4yl-propenone] | 1.2 ± 0.2 | 
3 | 1.2 ± 0.6 | 6 ± 0.6 | 327 | 3.8 | 225 | 397 | 0.173 ± 0.023 | O=C(/C=C/c1ccc2cccc(C(F)(F)F)c2n1)c1ccncc1 [PFK-153, 1-Pyridin-4-yl-3-(8-trifluoromethyl-quinolin-2-yl)-propenone] | 0.9 ± 0.1 | 
4 | 3.8 ± 0.8 | 15.6 ± 1.4 | 1330 | 2.5 | 63 | 40 | 0.802 ± 0.177 | O=C(/C=C/c1ccc2cc(OCCN3CCCCC3)ccc2n1)c1ccncc1 [PFK-150, 3-(6-(2-piperidin-1-yl-ethoxy)-quinolin-2-yl)-1-pyridin-4-yl-propenone] | 2.5 ± 0.4 | 
5 |  |  |  |  |  |  |  | O=C(/C=C/c1ccc2ccccc2n1)c1ccncc1 [PFK-015] |  | Percent metabolized after 1 hr [5]: 67%; IC50 (Jurkat cells; Table 1, Jurkat cells): 1.2 ± 0.1 µM; MTD [6]: 30 mg/kg; MTD ([7]; rat, in vivo, repeat dosing schedule): 12 mg/kg; Adverse observations in toxicology study ([7]; repeat dosing, PFK-158 5 to 30 mg/kg, PFK-015 12 and 25 mg/kg): adverse observations at both dose levels; IC50 ([1]; Table 1): 0.8 ± 0.1 µM; IC50 (PFKFB3 [2]; Table 1, F2,6BP levels, Jurkat cells): 4.7 ± 1.6 µM; body weight loss [8]: higher than 15%; clearance ([3]; Table 2, Balbc mice): 46 mL/min/kg; half-life ([3]; Table 2, Balbc mice): 5 h; AUC(0-inf) ([3]; Table 2, Balbc mice): 1800 ng·h/mL; Cmax ([3]; Table 2, Balbc mice): 3050 ng/mL; IC50 (PFKFB3 [4]; Table 1, read-out: IC50, Enzymatic activity of PFKFB3, ADP Glo Assay): 0.318 ± 0.019 µM
6 |  |  |  |  |  |  |  | Cl.Cl.O=C(/C=C/c1ccc2ccc(C(F)(F)F)cc2n1)c1ccncc1 [PFK-158, 2HCl] |  | plasma AUC0→24 ([9]; female dogs): 15,900±2600 hr·ng/mL; plasma C5 min ([9]; female dogs): 6900 ± 900 ng/mL; plasma AUC0→24 ([9]; male dogs): 16,100±700 hr·ng/mL; plasma C5 min ([9]; male dogs): 6960 ± 1180 ng/mL; plasma Cmax ([10]; female rats): 39,500±10,000 ng/mL; Plasma AUC0→t ([10]; female rats): 27,700±5800 hr·ng/mL; plasma Cmax ([10]; male rats): 51,400±6300 ng/mL; Plasma AUC0→t ([10]; male rats): 37,600±2800 hr·ng/mL
7 | 2.2 ± 0.6 | 11.3 ± 0.6 | 75 | 6.1 | 1100 | 672 |  | Cc1ccc2ccc(/C=C/C(=O)c3ccncc3)nc2c1 [PFK-154, 3-(7-Methyl-quinolin-2-yl)-1-pyridin-4-yl-propenone] | 1.3 ± 0.1 | 
